Experimental data: ChEMBL document CHEMBL1139604 (Bioorg Med Chem Lett, 2005)
pEC50, pIC50: −log10 of the molar value.

Tests used:
[1] = Inhibition of bovine farnesyl transferase; parameters: species or system Bos taurus
[2] = biological target: T1, Geranylgeranyl transferase type I (Bos taurus, UniProt P29702+Q5EAD5); assay: Inhibition of bovine geranylgeranyl transferase type I; assay type: protein-complex assay
[3] = biological target: T2, Protein farnesyltransferase (Mus musculus) (UniProt Q61239+Q8K2I1); assay: Percent inhibition of Ras processing in H-ras transformed NIH3T3 cells at 100 nM; assay type: functional, cell-based
[4] = biological target: T1, Geranylgeranyl transferase type I; assay: Inhibition of bovine geranylgeranyl transferase type I in presence of Lonafarnib; assay type: protein-complex assay
[5] = Inhibition of bovine farnesyl transferase in presence of Lonafarnib; parameters: species or system Bos taurus
[6] = biological target: T3, Protein farnesyltransferase (Mus musculus, UniProt Q61239+Q8K2I1); assay: Inhibition of Ras processing in H-ras transformed NIH3T3 cells in presence of Lonafarnib; assay type: functional, cell-based
[7] = biological target: T3, Protein farnesyltransferase; assay: Inhibition of Ras processing in H-ras transformed NIH3T3 cells; assay type: functional, cell-based
[8] = biological target: T2, Protein farnesyltransferase (Mus musculus); assay: Percent inhibition of Ras processing in H-ras transformed NIH3T3 cells at 1000 nM; assay type: functional, cell-based

pIC50 [1]	pIC50 [2]	inhibition [3]	Structure (SMILES)	other results
7.15			Cn1cncc1C(O)(c1ccc(I)cc1)c1ccc2c(c1)n(Cc1cccc(Cl)c1)c(=O)n2C (stereo not drawn)	
9.30	< 5.00	47%	CCOc1cccc(-n2c(=O)n(C)c3ccc(C(O)(c4ccc(C#N)cc4)c4cncn4C)cc32)c1 (stereo not drawn)	
6.70			Cn1cncc1C(O)(c1ccccc1)c1ccc2ccn(-c3cccc4ccccc34)c2c1 (stereo not drawn)	
			Cn1cncc1[C@@](N)(c1ccc(Cl)cc1)c1ccc2c(c1)c(-c1cccc(Cl)c1)cc(=O)n2C [TIPIFARNIB]	pIC50 [4]: < 5.00; pIC50 [5]: 8.08; pEC50 [6]: 7.00
8.17	< 5.00	24%	COc1cccc(-n2c(=O)n(C)c3ccc(C(O)(c4ccc(Cl)cc4)c4cncn4C)cc32)c1 (stereo not drawn)	
8.29	< 5.00		COc1cccc(-n2c(=O)n(C)c3ccc(C(O)(c4ccc(C#N)cc4)c4cncn4C)cc32)c1 (stereo not drawn)	
8.10	< 5.00	0%	Cn1cncc1C(O)(c1ccc(C#N)cc1)c1ccc2c(c1)n(-c1ccc3c(c1)OCO3)c(=O)n2C (stereo not drawn)	
6.82			Cn1cncc1C(O)(c1ccc(Cl)cc1)c1ccc2c(c1)n(Cc1cccc(Cl)c1)c(=O)n2C (stereo not drawn)	
7.62	5.92	2%	Cn1cncc1C(O)(c1ccc(I)cc1)c1ccc2c(c1)n(-c1cccc(Cl)c1)c(=O)n2C (stereo not drawn)	
7.68	5.54	0%	Cn1cncc1C(O)(c1ccc(Cl)cc1)c1ccc2c(c1)n(-c1ccc3ccccc3c1)c(=O)n2C (stereo not drawn)	
8.85	5.74		Cn1cncc1C(O)(c1ccc(C#N)cc1)c1ccc2c(c1)n(-c1cccc(Cl)c1)c(=O)n2C (stereo not drawn)	pEC50 [7]: 7.74
7.80		26%	Cn1cncc1C(O)(c1ccc(Cl)cc1)c1ccc2c(c1)n(-c1cccc(Cl)c1)c(=O)n2C (stereo not drawn)	
8.28	5.25	51%	Cn1cncc1C(O)(c1ccc(C#N)cc1)c1ccc2c(c1)n(Cc1cccc(Cl)c1)c(=O)n2C (stereo not drawn)	
8.18	5.12		CCOc1cccc(-n2c(=O)n(C)c3ccc(C(O)(c4ccc(Cl)cc4)c4cncn4C)cc32)c1 (stereo not drawn)	pEC50 [7]: 7.66
7.44			Cn1cncc1C(O)(c1ccccc1)c1ccc2ccn(-c3cccc(Cl)c3)c2c1 (stereo not drawn)	inhibition [8]: 13%
5.96			Cn1cncc1C(O)(c1ccc(Cl)cc1)c1ccc2c(c1)n(C)c(=O)n2-c1cccc(Cl)c1 (stereo not drawn)	
6.82			Cn1cncc1C(O)(c1ccc(Cl)cc1)c1ccc2c(c1)n(-c1ccc3c(c1)OCO3)c(=O)n2C (stereo not drawn)	
